US20180221435A1, “ITCH TREATMENT USING A COMBINATION OF NEUROKININ-1, GASTRIN RELEASING PEPTIDE, AND GLUTAMATE RECEPTOR ANTAGONISTS” (The Regents of the University of California, priority 2013, published 2018)
Read-outs that look alike come from different tables or passages of the source.

Assays:
[1] = at the dose and in the condition of the same Table I line; cited from earlier work
[2] = tested on: DRG cells; assay: Calcium imaging of DRG cells; conditions: 898 DRG cells; chloroquine 300 μM, histamine 100 μM, 30 sec; ratio increase more than 10%
[3] = tested on: superficial dorsal horn neurons; assay: In vivo single-unit recording, id histamine-evoked firing, spinal superfusion of antagonists; design: species or system mice; conditions: for Percentages of dorsal horn units that exhibited a decrease of 70% or more in firing rate following spinal superfusion of antagonists: id histamine-evoked firing, superfusion 1 min, RC-3095 20 μM, L-733060 200 μM, CNQX 100 μM
Protocol: (§1) Akiyama T et al., The Journal of neuroscience: the official journal of the Society for Neuroscience 29(20):6691-6699 (2009)]. Anesthesia was induced by sodium pentobarbital (60 mg/kg ip) and maintained by supplemental injections (10-20 mg/kg/hr). […] A tungsten microelectrode recorded single-unit activity in the lumbar spinal cord. A chemical search strategy [Akiyama T et al., Journal of neurophysiology 102(4):2176-2183 2009; […] Following mechanical stimulation, histamine (50 μg) was injected id within the same receptive field at a different location via a separate injection cannula. Following the id histamine injection, we tested the effects of antagonists for the receptors of NK1, GRP, or AMPA/kainate in the same manner as described above for chloroquine. […] Following the AITC application, we tested the effects of the NK-1 receptor antagonist, the AMPA/kainate receptor antagonist, or a combination of both antagonists in the same manner as described above for chloroquine. Action potentials were recorded to a computer and counted using Chart software (AD Instruments, Colorado Springs Colo.) and Spike2 software (CED Instruments). […] Mean peak responses elicited by noxious pinch were compared by one way repeated-measures ANOVA followed by post-hoc Bonferroni test, with p<0.05 set as significant. At the end of each experiment, an electrolytic lesion was made at the spinal cord recording site.

[4] = tested on: superficial dorsal horn neurons; assay: In vivo single-unit recording, id chloroquine-evoked firing, spinal superfusion of antagonists; design: species or system mice
Protocol: (§2) The single-unit recording from the lumbar spinal cord was conducted as previously detailed [Akiyama T et al., Journal of neurophysiology 102(4):2176-2183 (2009); Akiyama T et al., The Journal of neuroscience: the official journal of the Society for Neuroscience 29(20):6691-6699 (2009)]. Anesthesia was induced by sodium pentobarbital (60 mg/kg ip) and maintained by supplemental injections (10-20 mg/kg/hr). A gravity-driven perfusion system allowed artificial cerebrospinal fluid (Krebs: 117 mM NaCl, 3.6 mM KCl, 2.5 mM CaCl2, 1.2 mM MgCl2, 1.2 mM NaH2PO4, 25 mM NaHCO3 and 11 mM glucose which was equilibrated with 95% 02 and 5% CO2 at 37° C.) to be superfused continually over the exposed lumbosacral spinal cord [Akiyama T et al., PloS one 6(7):e22665 (2011)]. A tungsten microelectrode recorded single-unit activity in the lumbar spinal cord. A chemical search strategy [Akiyama T et al., Journal of neurophysiology 102(4):2176-2183 2009; Akiyama T et al., The Journal of neuroscience: the official journal of the Society for Neuroscience 29(20):6691-6699 (2009)] was used to identify and isolate chloroquine-responsive units. Our search strategy was intended to maximize the chance of isolating a chloroquine-responsive neuron; it was assumed that such neurons either gave rise to ascending projections, or served as interneurons in segmental scratch-reflex circuitry, and no attempt was presently made to distinguish between these possibilities.
Briefly, a small (˜0.25 μl) intradermal (id) microinjection of chloroquine (100 μg/μl) was made in the ventral hindpaw and a spontaneously active unit in the superficial lumbar dorsal horn (depth<300 um) was isolated. After the spontaneous activity had waned, chloroquine (1 μl, 100 μg/μl) was injected again at the same site through the same needle. […] Responses were usually recorded for at least 30 minutes, although in many cases unit firing declined over a shorter period.
Action potentials were recorded to a computer and counted using Chart software (AD Instruments, Colorado Springs Colo.) and Spike2 software (CED Instruments). Ongoing responses elicited by chloroquine, histamine, or AITC were averaged at 20-second intervals before, during and after the antagonist application, and compared by one way repeated-measures analysis of variance (ANOVA) followed by post-hoc Bonferroni test, with p<0.05 set as significant. The mean firing rate was calculated over a 20-second period 40 seconds after the antagonist application, and compared by one way ANOVA followed by post-hoc Bonferroni test, with p<0.05 set as significant. The criterion for decrease in ongoing firing was >70% decrease below the ongoing activity elicited by pruritogen over a 20-second period 40 seconds after the antagonist application. Mean peak responses elicited by noxious pinch were compared by one way repeated-measures ANOVA followed by post-hoc Bonferroni test, with p<0.05 set as significant. At the end of each experiment, an electrolytic lesion was made at the spinal cord recording site. The spinal cord was postfixed in 10% buffered formalin, cut in 50 μm frozen sections, and examined under the light microscope to identify lesions.

[5] = tested on: superficial dorsal horn neurons; assay: In vivo single-unit recording, noxious pinch-evoked responses, spinal superfusion of antagonists; design: species or system mice; conditions: pinch at end of 1 min superfusion
Protocol: Akiyama T et al., The Journal of neuroscience: the official journal of the Society for Neuroscience 29(20):6691-6699 (2009)]. Anesthesia was induced by sodium pentobarbital (60 mg/kg ip) and maintained by supplemental injections (10-20 mg/kg/hr). […] A tungsten microelectrode recorded single-unit activity in the lumbar spinal cord. A chemical search strategy [Akiyama T et al., Journal of neurophysiology 102(4):2176-2183 2009; […] Units were classified as wide dynamic range (WDR)-type if they responded in a graded manner to innocuous mechanical stimulation (brushing, cotton wisp) and noxious pinch, or nociceptive-specific (NS) if they responded to noxious pinch (and to the 55 mN von Frey stimulus) but not to the cotton wisp or brush stimuli. […] Akiyama T et al., The Journal of neuroscience: the official journal of the Society for Neuroscience 29(20):6691-6699 (2009)]. […] At the end of the antagonist superfusion, the noxious pinch stimulus was delivered again at the same site on the receptive field. Thirty minutes later, the noxious pinch stimulus was delivered in the same manner. Action potentials were recorded to a computer and counted using Chart software (AD Instruments, Colorado Springs Colo.) and Spike2 software (CED Instruments). […]

[6] = tested on: histamine-evoked scratching; conditions: intrathecal L-733060 22.7 nmol or RC-3095 0.3 nmol, data adapted from Akiyama et al. 2013, cited from earlier work
[7] = tested on: superficial dorsal horn neurons; assay: Baseline activity of superficial dorsal horn neurons before and after antagonist application; format: in vivo, mice; conditions: ± SEM
Protocol: as §2
There was no significant effect of any of the antagonists on the baseline activity of superficial dorsal horn neurons that were subsequently show to respond to pruritogens. […] Values prior to, and after administration of each antagonist individually or in combination, are as follows. NK-1 antagonist L-733060: pre-application 0.88 Hz±0.23 (SEM), post-antagonist 0.72 Hz±0.19 (n=10). GRPR antagonist RC-3095: pre-application 0.54 Hz±0.54, post-antagonist: 0.53 Hz±0.53 (n=4). CNQX: pre-application 0.53 Hz±0.14, post-antagonist 0.64 Hz±0.21 (n=22). CNQX+L-733060: pre-application 0.52 Hz±0.17, post-antagonists 0.43 Hz±0.11 (n=26). CNQX+L-733060+RC-3095: pre-application 0.14 Hz±0.06, post-antagonists 0.17 Hz±0.06 (n=9).

[8] = tested on: superficial dorsal horn neurons; assay: In vivo single-unit recording, topical AITC-evoked firing, spinal superfusion of antagonists; design: species or system mice
Protocol: as §1

O=c1[nH]c2cc(C(F)(F)F)c(N3CCOCC3)cc2n(CP(=O)(O)O)c1=O [ZK 200775]
Side Effects [1]: Sedation,

C[C@@H](O[C@H]1OCCN(Cc2n[nH]c(=O)[nH]2)[C@H]1c1ccc(F)cc1)c1cc(C(F)(F)F)cc(C(F)(F)F)c1 [Aprepitant]
Side Effects [1]: generally mild.

COc1ccc(-n2nnnc2C(F)(F)F)cc1CN[C@H]1CCCN[C@H]1c1ccccc1 [GR205171]
Side Effects [1]: well-tolerated

COc1ccc(OC(F)(F)F)cc1CN[C@H]1CCCN[C@H]1c1ccccc1 [AV608]
Side Effects [1]: well tolerated.

NCCc1c[nH]cn1 [histamine]
percentage of DRG cells imaged that responded [2]: 12.9%

CC(=O)N1N=C(c2ccc(N)cc2)c2cc3c(cc2C[C@H]1C)OCO3 [Talampanel]
Side Effects [1]: Mild (fatigue,

FC(F)(F)c1cc(CO[C@H]2CCCN[C@H]2c2ccccc2)cc(C(F)(F)F)c1 [L733060]
histamine-evoked response of NS units ([3]; NS units, vs vehicle): failed to reduce | histamine-evoked response of WDR units ([3]; WDR units, vs vehicle): failed to reduce | histamine-evoked firing, effect of spinal superfusion ([3]; all units): not significantly different from vehicle | Percentages of dorsal horn units that exhibited a decrease of 70% or more in firing rate following spinal superfusion of antagonists [3]: 33% (6/18) | Percentages of dorsal horn units that exhibited a decrease of 70% or more in firing rate following spinal superfusion of antagonists ([3]; listed as NK-1 antagonist): 33% | chloroquine-evoked firing compared to vehicle superfusion ([4]; 40-60 s of superfusion, normalized firing, vs vehicle): did not produce a significant reduction in firing compared to vehicle superfusion | chloroquine-evoked firing in NS cells ([4]; NS units, vs vehicle): but not NS cells | chloroquine-evoked firing in WDR cells ([4]; WDR units, vs vehicle): significantly reduced | chloroquine-evoked firing, effect of spinal superfusion ([4]; relative to chloroquine-evoked response prior to spinal superfusion): significantly attenuated after the cessation of superfusion | noxious pinch-evoked response, effect of spinal superfusion [5]: not reduced | histamine-evoked scratching (scratch bouts/30 minutes) ([6]; listed as NK-1 antagonist): neither the NK-1 nor the GRPR antagonist attenuated | histamine-evoked scratching (scratch bouts/30 minutes) ([6]; listed as NK-1 receptor antagonist): not affected | baseline neuronal firing rate, post-antagonist ([7]; averaged over 1 min following antagonist application): 0.72 Hz | baseline neuronal firing rate, pre-application ([7]; averaged over 1 min prior to antagonist application): 0.88 Hz | AITC-evoked firing, effect of spinal superfusion ([8]; topical AITC 75%): numerically reduced | Percentages of dorsal horn units that exhibited a decrease of 70% or more in firing rate following spinal superfusion of antagonists ([8]; topical AITC-evoked firing, superfusion 1 min, L-733060 200 μM, CNQX 100 μM): 22% (2/9)

CC(=O)N1CCN([C@H]2CCN(C(=O)N(C)[C@H](C)c3cc(C(F)(F)F)cc(C(F)(F)F)c3)[C@@H](c3ccc(F)cc3C)C2)CC1 [GW679769]
Side Effects [1]: well tolerated,

CCN(CC)CCCC(C)Nc1ccnc2cc(Cl)ccc12 (stereo not drawn) [chloroquine]
percentage of DRG cells imaged that responded [2]: 8.4%
